Like-named read-outs stand apart in the source and are kept apart here.
Assays:
[1] = tested on: BxPC3 spheroids; experiment: 3D spheroid APH assay, BxPC3; assay type: cell-based, human; conditions: 72 h, APH test
From the text: (§1) Acid phosphatase (APH) assay. A modified APH assay, which is based on quantification of cytosolic acid phosphatase activity, was used for determining cell viability in spheroids. […] Triplicate cultures were established for each treatment. […] Evaluation was based on means from at least four independent experiments.
(§2) In order to improve the predictive capacity of the in vitro assays, we tested the activity in three three-dimensional (3D) cell cultures; human colon cancer cells, HCT-15, and human pancreatic cancer cells, KRAS wild type BxPC3 cells KRAS mutated PSN-1 cells. The cancer spheroids were treated with 3a and 3b for 72 h and the cell viability was assessed by means of the APH assay (Table 6). For comparison purposes, the cytotoxicities of CDDP and OXP were evaluated under the same experimental conditions.

[2] = tested on: H157 cells; experiment: MTT cytotoxicity assay, H157; assay type: cell-based, human; conditions: H157, 72 h
Method: (§3) MTT assay. […] Triplicate cultures were established for each treatment.
(§4) The two dimers, 3a and 3b, as well as compounds 1a and 2a were screened against six human cancer cell lines representative of lung (H157), colon (HCT-15), cervical (A431), ovarian (2008) and pancreatic (PSN1) cancers, along with melanoma (A375). Cytotoxicity was evaluated by means of the MTT test after 72 h of treatment and the in vitro antitumor potential of newly synthesized derivatives was compared to that of the reference metallo-drugs CDDP and OXP.

[3] = tested on: 2008 cells; experiment: MTT cytotoxicity assay, 2008; assay type: cell-based, human; conditions: for IC50: 2008, 72 h, MTT
Method: as §3, §4

[4] = tested on: HCT-15 spheroids; experiment: 3D spheroid APH assay, HCT-15; assay type: cell-based, human; conditions: for IC50: HCT-15 spheroids, 72 h, APH test
From the text: as §1, §2

[5] = tested on: A2780cisR cells; experiment: MTT cytotoxicity assay, A2780cisR (cisplatin resistant); assay type: cell-based, human; conditions: A2780cisR, 72 h exposure, MTT; read-out: IC50 (median growth inhibitory concentration)
Method: Platinum(IV) complexes were dissolved in DMSO to stock solutions of 1 mg/mL just before the experiment, and a calculated amount of drug solution was added to the cell growth medium to a final solvent concentration of 0.5%, which had no discernible effect on cell killing. Cisplatin (CDDP) and oxaliplatin (OXP) were dissolved just before the experiment in a 0.9% NaCl solution.
Human prostate adenocarcinoma (PC3) cells were obtained from European Collection of Cell Cultures (ECACC, Salisbury, UK). Human ovarian cancer cell lines A2780 and its cisplatin resistant variant, A2780cisR, were kindly provided by Prof.
Cancer Res. 1988, 48, 589-601]. […] Triplicate cultures were established for each treatment.

[6] = tested on: Histone deacetylase (HDAC); experiment: Histone deacetylase assay in 2008 cells; assay type: cell-based, human; conditions: 24 h, IC50 concentrations
Method: (§5) Histone deacetylase assay. Histone deacetylase activity was determined using Fluor-de-Lys® HDAC fluorometric activity assay kit (Enzo Life Sciences International, Inc., Plymount Meeting, Pa., U.S.A.). 2008 and PSN1 cells (5.10^4 seeded in 96-well microplates) were treated for 24 h with tested complexes, and then processed as reported by the manufacturer's instructions. Fluorescence was measured using a Fluoroskan Ascent FL (Labsystem, Finland) plate reader, with excitation at 360 nm and emission at 460 nm.
(§6) Thus, we measured both the levels of DNA platination and the ability of these pro-drugs to inhibit HDAC activity in cancer cells.

[7] = tested on: HCT-15 cells; experiment: MTT cytotoxicity assay, HCT-15; assay type: cell-based, human
Summary of the method: (§7)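 MTT viability read-out in HCT-15 and A375 human cancer cells after 72 h compound exposure; triplicate cultures per treatment.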

[8] = tested on: A431 cells; experiment: MTT cytotoxicity assay, A431; assay type: cell-based, human; conditions: A431, 72 h
Method: as §3, §4

[9] = tested on: PSN-1 spheroids; experiment: 3D spheroid APH assay, PSN-1; assay type: cell-based, human; conditions: for IC50: PSN-1 spheroids, 72 h, APH test
From the text: as §1, §2

[10] = tested on: A375 cells; experiment: MTT cytotoxicity assay, A375; assay type: cell-based, human
Summary of the method: as §7

[11] = tested on: human embryonic kidney HEK293 cells; experiment: MTT cytotoxicity against non-tumor cells; assay type: cell-based; conditions: for IC50: HEK293 non-tumor cells, 72 h, MTT; for SI (selectivity index): ratio between average IC50 of non-tumor cells and IC50 of malignant cells
Method: as §3
The cytotoxic activity of derivatives 3a and 3b was also evaluated against non-tumor cells, namely human embryonic kidney HEK293 cells (Table 7). Both compounds 3a and 3b were more cytotoxic than CDDP.

[12] = tested on: PSN1 cells; experiment: MTT cytotoxicity assay, PSN1; assay type: cell-based, human; conditions: for IC50: PSN1, 72 h, MTT
Method: as §3, §4

[13] = tested on: BxPC3 cells; experiment: MTT cytotoxicity assay, BxPC3; assay type: cell-based, human; conditions: BxPC3, 72 h exposure, MTT; read-out: IC50 (median growth inhibitory concentration)
[14] = tested on: Histone deacetylase (HDAC); experiment: Histone deacetylase assay in PSN-1 cells; assay type: cell-based, human; conditions: 24 h, IC50 concentrations
Method: as §5, §6

[15] = Stability in cell culture medium DMEM (NMR); assay type: physicochemical; conditions: 37° C.
Method: A solution 2.0 mM of 3a (Scheme 4) in DMEM was kept at 37° C. for 3 days. NMR measurements were performed every day.
A phosphate buffer solution is an oversimplified model for medium of biological relevance in order to test the stability of a drug candidate. […] Thus, as following step, we evaluated the stability of 3a in cell culture medium DMEM, where the biomolecules present can affect the overall degradation process. A 2.0 mM solution of 3a in DMEM monitored by ^1H NMR spectroscopy for 3 days at 37° C. (FIG. 8).

[16] = HCT-15, 72 h, MTT (Table 5), read-out: IC50 (μM) ± S.D.
[17] = A375, 72 h, MTT (Table 5), read-out: IC50 (μM) ± S.D.

Compound | IC50 [1] | IC50 [2] | IC50 [3] | IC50 [4] | HDAC activity hampered [6] | IC50 [7, 16] | IC50 [8] | IC50 [9] | IC50 [10, 17] | IC50 [11] | SI (selectivity index) [11] | IC50 [12] | HDAC activity hampered [14] | also measured
[NH2][Pt]([NH2])([Cl])[Cl] [CDDP, Cisplatin, reference compound] | 69.6 ± 8.21 µM | 3.28 ± 2.38 µM | 2.22 µM | 89.2 ± 3.44 µM | not effective in modifying HDAC activity | 15.3 ± 2.63 µM | 1.65 ± 0.51 µM | 59.9 ± 12.9 µM | 3.11 ± 0.98 µM | 19.6 ± 2.95 µM | 2.7 | 18.2 µM | not effective in modifying HDAC activity | fold more potent than 3b ([3]; 2008 cells): ~3 fold; IC50 [5]: 13.8 ± 0.2 µM; IC50 ([7]; HCT-15, 72 h exposure, MTT (Table 1), read-out: IC50 (median growth inhibitory concentration)): 11.3 ± 1.06 µM; IC50 ([10]; A375, 72 h exposure, MTT (Table 1), read-out: IC50 (median growth inhibitory concentration)): 4.03 ± 0.95 µM; IC50 [13]: 11.4 ± 1.14 µM
c,c,t,t,c,c-[(DACH)(56Phen)(PhBu)Pt(μ-OOC—(CH2)2—CONH(CH2)3COO)—Pt(DCA)(NH3)2 (Cl2)](TFA)2 [Compound 3a] | 59.1 ± 3.84 µM | 0.95 ± 0.08 µM | 0.79 µM | 40 ± 4.58 µM | about 8% | 0.36 ± 0.08 µM | 0.2 ± 0.09 µM | 10.3 ± 4.85 µM | 0.08 ± 0.01 µM | 2.25 ± 0.29 µM | 5.5 | 0.09 µM | ~10% | times more effective than CDDP ([4]; HCT-15 3D model): about 2 fold; Pt(IV)-phen moiety reduced ([15]; after 1 day): about 22%; Pt(IV)-phen moiety reduced ([15]; after 2 days): 39%; Pt(IV)-phen moiety reduced ([15]; after 3 days): 58%; factor by which activity exceeded that of the reference drugs ([9]; PSN-1 3D model): about 6 fold; times SI better than that of cisplatin [11]: about 2 fold; times more effective than CDDP ([12]; PSN1 cells): up to 200 fold; times more effective than OXP ([12]; PSN1 cells): ≤ 92 fold

From US20190290656A1, “PT(IV) PRODRUGS” (YISSUM RESEARCH DEVELOPMENT COMPANY OF THE HEBREW …, priority 2015, published 2019)
